Patent US12551494B2, “Pharmaceutical composition for preventing or treating dengue fever” (SEOUL NATIONAL UNIVERSITY R&DB FOUNDATION, priority 2021, dated 2026)
Values joined by “and” are separate entries in the source; they are usually repeats but may differ in a detail not shown here. Equal entries are not always repeated.

How the values were obtained:
DENV serotype 2 [1] = assay: GOViRA (graphene oxide-based viral RNA analysis) fluorescence antiviral assay / drug library screening in Vero E6 cells; format: cell-based, dengue virus
Protocol: Vero E6 cells were seeded onto 96-well, black wall, optical bottom plates at a density of 1.5×10^4 cells per well and incubated with DMEM supplemented with 10% FBS and P/S. After overnight incubation, the cells were briefly washed with 1× PBS and infected with DENV. Next, 20 pmol vPNA or β-actin PNA probe was mixed with 1.2 μg DRGON solution for 10 min at RT. The Vero E6 cells were treated with the PNA-DRGON complexes for 5 h. The plates were incubated for up to 72 h, and cell nuclei were counterstained with Hoechst 33342. Fluorescent images were obtained by the IN Cell Analyzer 2000 (GE Healthcare) and DeltaVision Elite (GE Healthcare) imaging system. The quantification of data was processed with the IN Cell Developer software (https://cyvitalifesciences.com).
For the drug library screening experiments, 1.5×10^4 Vero E6 cells in a total volume of 100 μL per well were seeded onto 96-well, black wall, optical bottom plates using DMEM media supplemented with 10% FBS and P/S and incubated overnight. Next, the cells were pretreated with 50 μL of experimental compounds or vehicle in DMEM supplemented with 2% FBS and P/S and incubated 1 h at 37° C. Next, 50 μL of DENV (a final MOI of 0.5) were added to each well, resulting in a 10 μM final concentration for each compound and cells were incubated for 48 h.
Infection was stopped by rinsing each well with 1× PBS, and the infected cells were treated with the PNA-DRGON complexes for 5 h at 37° C. and then briefly washed with 1× PBS. Fluorescent images were obtained by the IN Cell Analyzer 2000, and quantification of the data was processed using the IN Cell Developer software.
To determine its systemic reliability as a high-throughput screening assay, we used Z′-factor as a statistical parameter. […] To further verify whether the GOViRA system is capable of the quantitative analysis of antiviral activity, we utilized the system to investigate the cellular effect caused by a model representative antiviral compound, Ribavirin. […]

Vero E6 cells = assay: Cell viability test (CCK-8 assay); format: cell-based
Protocol: The CCK-8 assay was performed according to the manufacturer's instructions. Vero E6, Huh7, and A549 cells were seeded in 96-well culture plates with 100 μL of complete media. After 24 h of incubation, the cells were treated with nanomaterials or drug in serially diluted concentrations for 48 h. The cells were rinsed with 1× PBS twice, and CCK-8 reagent was treated at a concentration of 10% (v/v) and incubated for 1 h. The optical density at 450 nm was measured by SynergyMx (Biotek) in the absorbance mode.

DENV [2] = assay: DENV infection in A549 cells (qRT-PCR of viral RNA, E protein immunostaining); format: cell-based, dengue virus
Protocol: (§1) Total RNA was extracted using Trizol (Invitrogen). The cDNA samples were prepared by reverse transcription using SuperScript II Reverse Transcriptase (Invitrogen). The synthesized cDNA samples were subjected to qRT-PCR with primers specific for each gene by using the PowerUp SYBR Green Master Mix (Applied Biosystems) and CFX Connect (Bio-Rad).
(§2) We further validated the antiviral activity of ulipristal using Huh7 (liver carcinoma cell line) and A549 (lung carcinoma cell line) cell lines as hosts for the DENV infection. Both cell monolayers were analyzed with qRT-PCR to observe the relative DENV RNA level. […] Moreover, the fluorescence signal of the viral E protein from immunostaining also was reduced by the ulipristal treatment (FIG. 11C).

DENV (KBPV-VR-29) = assay: Murine DENV infection model (AG129 mice); format: in vivo
Protocol: AG129 mice (8-10 weeks old, female) were purchased from Marshall BioResources and housed under pathogen-free conditions. Animal research was approved by the Institutional Animal Care and Use Committee of Seoul National University and was performed according to the guidelines of the recommendations from the Association for Assessment and Accreditation of Laboratory Animal Care.
The murine DENV infection model was as described in previous study (Park, S. J., Kim, J., Kang, S., Cha, H. J., Shin, H., Park, J., Jang, Y. S., Woo, J. S., Won, C., Min, D. H., 2020. Sci Adv 6 (22), eaaz8201.). AG129 mice were exposed with a target dose of […] of the DENV by intraperitoneal injection. One hour after the challenge, the animals were treated with ulipristal. The compound was dissolved in sesame oil at a 10× concentration and further diluted in 1× PBS. Ulipristal was administered to the animals by intraperitoneal injection.
Animals in the vehicle control groups were administered a solution with no drug. The animals were monitored for weight, morbidity (ruffled fur, hunched posture, etc.), and survival daily for a total of 14 days after infection. Mice with a weight <80% of their initial body weight were humanely euthanized. At 3 days p.i., mice were sacrificed from each group. Blood and organ samples were collected. Blood was clarified by centrifugation, and viremia was determined by qRT-PCR. Organs were homogenized, and total RNA was extracted using Trizol. The relative DENV RNA level from each organ was determined by qRT-PCR.
Organ samples were fixed with 4% paraformaldehyde and embedded in paraffin. Paraffin sections were stained with H&E at the pathology core facility in the Center for Medical Innovation, Seoul National University Hospital, Korea.
The DENV strain we used (KBPV-VR-29) has been reported as a mouse-adapted virus strain. […] One hour after the infection, the animals were treated with ulipristal or vehicle over 14 days, and survival was monitored during that period.
Ulipristal was given at a dose of 15 mg/kg every day through intraperitoneal injection.

DENV [3] = assay: Time-of-addition assay in A549 cells; format: cell-based, dengue virus; conditions: 48 h p.i.
Protocol: A549 cells were seeded onto 24-well plates. After incubation overnight, cells were treated with ulipristal at the various time points and inoculated with DENV. At 48 h p.i., the cells were washed with 1× PBS and processed for qRT-PCR.
A549 cells were treated with ulipristal in three different conditions: treatment before the infection (pre-treatment), treatment along with the infection (co-treatment), and treatment after the infection (post-treatment) (FIG. 14A). […] Furthermore, the degree of inhibitory effect was decreased as the ulipristal administration was delayed (FIG. 14B).

DENV [4] = assay: qRT-PCR analysis of viral RNA in DENV-infected Vero E6 cells; format: cell-based, dengue virus; conditions: dose-dependent treatment
Protocol: as §1
(§3) Standard assays were done to check the antiviral effect and cytotoxicity of ulipristal in vitro. The activity of ulipristal against DENV was evaluated by both FFA and qRT-PCR. For the FFA, Vero E6 cells were infected with DENV in the presence of various concentrations of ulipristal.
(§4) The anti-DENV activity was assessed by immunostaining with antibodies specific to the DENV E protein. […] The cytotoxicity of the compound in the Vero E6 cells was determined by the CCK-8 assay.

DENV serotype 2 [5] = assay: Focus-forming assay (FFA) in Vero E6 cells; format: cell-based, dengue virus
Protocol: The virus was titrated by FFA in Vero E6 cells. Ten-fold serial diluted virus in DMEM supplemented with 2% FBS and P/S was added onto confluent Vero E6 cell monolayers attached to 96-well, black wall, optical bottom plates (Corning) and incubated for 1 h. After the incubation, the wells were overlaid with 100 μL of DMEM with 10% FBS, P/S, and methylcellulose and incubated for 2 days. Following the incubation, cell monolayers were fixed with 4% paraformaldehyde and then treated with blocking solution for 1 h. Samples were then treated with the anti-Dengue virus E protein antibody (GeneTex, GTX127277), followed by FITC-labeled goat anti-mouse IgG secondary antibody (Sigma-Aldrich, F0257).
as §3, §4

PR = assay: qRT-PCR analysis of PR expression in A549 cells; format: cell-based; conditions: 24 h of incubation
Protocol: as §1
A time-of-addition experiment was performed to determine which time point of the viral infection stage is affected by the administration of ulipristal. Because ulipristal is widely known as an SPRM compound, we chose a cell line without PR expression to exclude the influence of PR signaling on the time-of-addition experiment. […] After 24 h of incubation, the RNA expression level of each group was analyzed. There was no PR expression in the NT group (FIG. 13). […] Therefore, we examined the mode of action of ulipristal using the A549 cell line.

DENV [6] = assay: DENV infection in Huh7 cells (qRT-PCR of viral RNA, E protein immunostaining); format: cell-based, dengue virus
Protocol: as §1, §2

[7] = 15 mg/kg every day i.p., day 3 p.i.

NC(=O)c1ncn([C@@H]2O[C@H](CO)[C@@H](O)[C@H]2O)n1 [ribavirin, Ribavirin] was tested, and the “fluorescence signal (GOViRA), dose response” value (DENV serotype 2 [1]; DENV-infected Vero E6 cells) was “serial decrease in the fluorescence signal dose-dependently” and the EC50 (DENV serotype 2 [1]; Dengue virus, Vero C1008, DENV-infected Vero E6 cells, concentrations 6.25 μM to 400 μM, PNA-DRGON complex after 48 hours, read-out: EC50 value for DENV serotype 2 (GOViRA system)) was 49.2 ± 0.2 µM.

In the case of CC(=O)[C@@]1(O)CC[C@H]2[C@@H]3CCC4=CC(=O)CCC4=C3[C@@H](c3ccc(N(C)C)cc3)C[C@@]21C [ulipristal], the “cell viability in drug library screening” value (Vero E6 cells; 10 μM) is reported as “minimal effects on cell viability”, the “cytotoxicity / cell viability (CCK-8)” value (Vero E6 cells; 48 h) is reported as “no impact on cell viability” and the “fluorescence signal decrease in drug library screening” value (DENV serotype 2 [1]; 10 μM, Vero E6 cells, pretreated 1 h, MOI 0.5, 48 h) is reported as less than 25%. The “fluorescence signal of viral E protein (immunostaining)” value (DENV [2]) was “reduced”, the “relative DENV RNA level (qRT-PCR)” value (DENV [2]) was “inhibited the DENV infection in both cell lines dose-dependently” and the “spleen histology (H&E), white-pulp/red-pulp boundary loss” value (DENV (KBPV-VR-29); 15 mg/kg every day i.p.) was “boundary loss was decreased”. For the same molecule, the “viral RNA load in organs (spleen, lung, liver, large intestine)” value (DENV (KBPV-VR-29); [7]) was “significantly decreased”, the “viral RNA load in the small intestine, difference vs vehicle” value (DENV (KBPV-VR-29); [7]) was “not statistically significant” and the “viremia in the blood (qRT-PCR)” value (DENV (KBPV-VR-29); 15 mg/kg every day i.p., day 3 p.i., vs control group) was “significantly reduced viremia”. The “liver histology (H&E): nuclear pleomorphism of hepatocytes, dilatation of sinusoids, focal necrosis” value (DENV (KBPV-VR-29); 15 mg/kg every day i.p., vs control group) was “significant reduction of such symptoms”, the survival (DENV (KBPV-VR-29); 15 mg/kg every day, intraperitoneal, 14 days, log-rank test) was “statistically significant survival benefit (P=0.0007)” and the “relative body weight change and disease symptoms” value (DENV (KBPV-VR-29); 15 mg/kg every day, intraperitoneal, DENV 1×107 FFU i.p., 14 days) was “Compared to the ulipristal-treated group, the control group exhibited a huge weight loss”. The “intracellular viral RNA level, antiviral effect” value (shortened to “intracellular viral RNA level”) (DENV [3]; co-treatment (along with the infection)) was “antiviral effect by the administration of the drug was observed”, the “intracellular viral RNA level” value (DENV [3]; post-treatment (after the virus inoculation)) was “less inhibitory effect” and the “intracellular viral RNA level” value (DENV [3]; pre-treatment (before the infection)) was “antiviral effect by the administration of the drug was observed”. For the same molecule, the “relative expression level of viral RNA (qRT-PCR)” value (DENV [4]) was “active against DENV”, the EC50 (DENV serotype 2 [5]; DENV serotype 2, read-out: half-effective concentration (EC50), anti-DENV activity by FFA) was 8.3 µM and 8.28 µM and the “number of foci (FFA, DENV E protein immunostaining)” value (DENV serotype 2 [5]; various concentrations) was “number of foci decreased in a dose-dependent manner”. The “levels of PR expression (qRT-PCR)” value (PR) was “did not influence the levels of PR expression”, the “fluorescence signal of viral E protein (immunostaining)” value (DENV [6]) was “reduced” and the “relative DENV RNA level (qRT-PCR)” value (DENV [6]) was “inhibited the DENV infection in both cell lines dose-dependently”.
